Assay results from publication PMC4256409, “Role of Phenylalanine and Valine^10 Residues in the Antimicrobial Activity and Cytotoxicity of Piscidin-1” (PLoS ONE, 2014).
Where no end group is shown, it is not given here.

Tested on: E. coli KCTC1682
Type: cell-based, Escherichia coli
Details: KCTC1682, 16 h

Question: For FFHHIFRGIKHVGKTIHRLVTG [Pis-V10K], which MIC is on record?
Answer: The MIC was 1.0 µM.

Tested on: E. coli KCTC2593
Type: cell-based, Escherichia coli
Details: KCTC2593, 16 h

Question: Which MIC does the source give for FFHHIFRGIKHVGKTIHRLVTG [Pis-V10K] here?
Answer: Its MIC is 2.0 µM.

Tested on: E.coli KCTC2571
Type: cell-based, Escherichia coli
Details: KCTC2571, 16 h

Question: Which MIC does the source give for FFHHIFRGIKHVGKTIHRLVTG [Pis-V10K] here?
Answer: The MIC was 2.0 µM.

Tested on: P. aeruginosa KCTC1637
Type: cell-based, Pseudomonas aeruginosa
Details: KCTC1637, 16 h

Question: FFHHIFRGIKHVGKTIHRLVTG [Pis-V10K] was tested. Which MIC did it give?
Answer: Its MIC is 1.0 µM.

Tested on: P. aeruginosa KCTC2004
Type: cell-based, Pseudomonas aeruginosa
Details: KCTC2004, 16 h

Question: With FFHHIFRGIKHVGKTIHRLVTG [Pis-V10K] as the sequence, how does the MIC read?
Answer: Its MIC is 2.0 µM.

Tested on: P. aeruginosa KCTC2513
Type: cell-based, Pseudomonas aeruginosa
Details: KCTC2513, 16 h

Question: For FFHHIFRGIKHVGKTIHRLVTG [Pis-V10K], which MIC is on record?
Answer: The MIC was 2.0 µM.

Tested on: S. typhimurium KCTC1926
Type: cell-based, Salmonella typhimurium
Details: KCTC1926, 16 h

Question: How did the MIC turn out when FFHHIFRGIKHVGKTIHRLVTG [Pis-V10K] was run?
Answer: Its MIC is 1.0 µM.

Tested on: B. subtilis KCTC3068
Type: cell-based, Bacillus subtilis
Details: KCTC3068, 16 h

Question: How did the MIC turn out when FFHHIFRGIKHVGKTIHRLVTG [Pis-V10K] was run?
Answer: The MIC was 1.0 µM.

Tested on: B. subtilis KCTC1021
Type: cell-based, Bacillus subtilis
Details: KCTC1021, 16 h

Question: With FFHHIFRGIKHVGKTIHRLVTG [Pis-V10K] as the sequence, how does the MIC read?
Answer: Its MIC is 4.0 µM.

Tested on: B. subtilis KCTC1022
Type: cell-based, Bacillus subtilis
Details: KCTC1022, 16 h

Question: How did the MIC turn out when FFHHIFRGIKHVGKTIHRLVTG [Pis-V10K] was run?
Answer: The MIC was 2.0 µM.

Tested on: S. epidermidis KCTC1917
Type: cell-based, Staphylococcus epidermidis
Details: KCTC1917, 16 h

Question: With FFHHIFRGIKHVGKTIHRLVTG [Pis-V10K] as the sequence, how does the MIC read?
Answer: Its MIC is 1.0 µM.

Tested on: S. aureus KCTC1621
Type: cell-based, Staphylococcus aureus
Details: KCTC1621, 16 h

Question: How did the MIC turn out when FFHHIFRGIKHVGKTIHRLVTG [Pis-V10K] was run?
Answer: Its MIC is 1.0 µM.

Tested on: S. aureus KCTC1916
Type: cell-based, Staphylococcus aureus
Details: KCTC1916, 16 h

Question: For FFHHIFRGIKHVGKTIHRLVTG [Pis-V10K], which MIC is on record?
Answer: Its MIC is 2.0 µM.

Tested on: S. aureus KCTC3881
Type: cell-based, Staphylococcus aureus
Details: KCTC3881, 16 h

Question: Which MIC does the source give for FFHHIFRGIKHVGKTIHRLVTG [Pis-V10K] here?
Answer: The MIC was 1.0 µM.

Tested on: MRSA CCARM3089
Type: cell-based, Methicillin-resistant S. aureus
Details: CCARM3089, 16 h

Question: For FFHHIFRGIKHVGKTIHRLVTG [Pis-V10K], which MIC is on record?
Answer: The MIC was 8.0 µM.

Tested on: MRSA CCARM 3090
Type: cell-based, Methicillin-resistant S. aureus
Details: CCARM 3090, 16 h

Question: How did the MIC turn out when FFHHIFRGIKHVGKTIHRLVTG [Pis-V10K] was run?
Answer: The MIC was 8.0 µM.

Tested on: MRSA CCARM 3108
Type: cell-based, Methicillin-resistant S. aureus
Details: CCARM 3108, 16 h

Question: For FFHHIFRGIKHVGKTIHRLVTG [Pis-V10K], which MIC is on record?
Answer: Its MIC is 4.0 µM.

Tested on: MRSA CCARM 3114
Type: cell-based, Methicillin-resistant S. aureus
Details: CCARM 3114, 16 h

Question: FFHHIFRGIKHVGKTIHRLVTG [Pis-V10K] was tested. Which MIC did it give?
Answer: Its MIC is 4.0 µM.

Tested on: MRSA CCARM 3126
Type: cell-based, Methicillin-resistant S. aureus
Details: CCARM 3126, 16 h

Question: How did the MIC turn out when FFHHIFRGIKHVGKTIHRLVTG [Pis-V10K] was run?
Answer: Its MIC is 4.0 µM.

Tested on: MDRST CCARM 8003
Type: cell-based, multidrug-resistant S. typhimurium
Details: broth microdilution, 37°C, 16 h, three independent experiments in triplicate, SD 14.0%

Question: With FFHHIFRGIKHVGKTIHRLVTG [Pis-V10K] as the sequence, how does the MIC read?
Answer: The MIC was 8.0 µM.

Tested on: MDRST CCARM 8007
Type: cell-based, multidrug-resistant S. typhimurium
Details: broth microdilution, 37°C, 16 h, three independent experiments in triplicate, SD 14.0%

Question: FFHHIFRGIKHVGKTIHRLVTG [Pis-V10K] was tested. Which MIC did it give?
Answer: The MIC was 4.0 µM.

Tested on: MDRST CCARM 8009
Type: cell-based, multidrug-resistant S. typhimurium
Details: broth microdilution, 37°C, 16 h, three independent experiments in triplicate, SD 14.0%

Question: FFHHIFRGIKHVGKTIHRLVTG [Pis-V10K] was tested. Which MIC did it give?
Answer: The MIC was 4.0 µM.

Tested on: MDREC CCARM 1229
Type: cell-based, multidrug-resistant E. coli
Details: broth microdilution, 37°C, 16 h, three independent experiments in triplicate, SD 14.0%

Question: For FFHHIFRGIKHVGKTIHRLVTG [Pis-V10K], which MIC is on record?
Answer: Its MIC is 4.0 µM.

Tested on: MDREC CCARM 1238
Type: cell-based, multidrug-resistant E. coli
Details: broth microdilution, 37°C, 16 h, three independent experiments in triplicate, SD 14.0%

Question: How did the MIC turn out when FFHHIFRGIKHVGKTIHRLVTG [Pis-V10K] was run?
Answer: The MIC was 4.0 µM.

Tested on: MDRAB CCARM 12005
Type: cell-based, multidrug-resistant Acinetobacter baumanii
Details: broth microdilution, 37°C, 16 h, three independent experiments in triplicate, SD 14.0%

Question: FFHHIFRGIKHVGKTIHRLVTG [Pis-V10K] was tested. Which MIC did it give?
Answer: The MIC was 2.0 µM.

Tested on: MDRAB CCARM 12035
Type: cell-based, multidrug-resistant Acinetobacter baumanii
Details: broth microdilution, 37°C, 16 h, three independent experiments in triplicate, SD 14.0%

Question: For FFHHIFRGIKHVGKTIHRLVTG [Pis-V10K], which MIC is on record?
Answer: Its MIC is 2.0 µM.

Tested on: MDRAB CCARM 12036
Type: cell-based, multidrug-resistant Acinetobacter baumanii
Details: broth microdilution, 37°C, 16 h, three independent experiments in triplicate, SD 14.0%

Question: How did the MIC turn out when FFHHIFRGIKHVGKTIHRLVTG [Pis-V10K] was run?
Answer: The MIC was 2.0 µM.

Tested on: MDRAB CCARM 12037
Type: cell-based, multidrug-resistant Acinetobacter baumanii
Details: broth microdilution, 37°C, 16 h, three independent experiments in triplicate, SD 14.0%

Question: With FFHHIFRGIKHVGKTIHRLVTG [Pis-V10K] as the sequence, how does the MIC read?
Answer: Its MIC is 2.0 µM.

Tested on: MDRPA CCARM 2002
Type: cell-based, multidrug-resistant P. aeruginosa
Details: broth microdilution, 37°C, 16 h, three independent experiments in triplicate, SD 14.0%

Question: FFHHIFRGIKHVGKTIHRLVTG [Pis-V10K] was tested. Which MIC did it give?
Answer: Its MIC is 2.0 µM.

Tested on: MDRPA CCARM 2003
Type: cell-based, multidrug-resistant P. aeruginosa
Details: broth microdilution, 37°C, 16 h, three independent experiments in triplicate, SD 14.0%

Question: Which MIC does the source give for FFHHIFRGIKHVGKTIHRLVTG [Pis-V10K] here?
Answer: The MIC was 2.0 µM.

Tested on: MDRPA CCARM 2095
Type: cell-based, multidrug-resistant P. aeruginosa
Details: broth microdilution, 37°C, 16 h, three independent experiments in triplicate, SD 14.0%

Question: For FFHHIFRGIKHVGKTIHRLVTG [Pis-V10K], which MIC is on record?
Answer: The MIC was 2.0 µM.

Tested on: MDRPA CCARM 2163
Type: cell-based, multidrug-resistant P. aeruginosa
Details: broth microdilution, 37°C, 16 h, three independent experiments in triplicate, SD 14.0%

Question: Which MIC does the source give for FFHHIFRGIKHVGKTIHRLVTG [Pis-V10K] here?
Answer: The MIC was 2.0 µM.

Tested on: Standard bacterial strains
Type: cell-based
Details: average over the 14 standard bacterial strains of Table 2

Question: For FFHHIFRGIKHVGKTIHRLVTG [Pis-V10K], which “Average MIC” value is on record?
Answer: The value was 1.6 µM.

Tested on: Drug-resistant bacterial strains
Details: average over the 18 drug-resistant bacterial strains of Table 3
Excerpt: Escherichia coli KCTC 1682, E. coli KCTC 2593, E. coli KCTC 2571, Salmonella typhimurium KCTC 1926, Pseudomonas aeruginosa KCTC 1637, P. aeruginosa KCTC 2004, P. aeruginosa KCTC 2513, Bacillus subtilis KCTC 3068, B. subtilis KCTC 1021, B. subtilis KCTC 1022, Staphylococcus epidermidis KCTC 1917, Staphylococcus aureus KCTC 1621, S. aureus KCTC 1916, and S. aureus KCTC 3881 were purchased from the Korean Collection for Type Cultures, Korea Research Institute of Bioscience & Biotechnology (Taejon, Korea). Methicillin-resistant S. aureus (MRSA) (CCARM 3089, CCARM 3090, CCARM 3108, CCARM 3114, and CCARM 3126), multidrug-resistant E. coli (MDREC) (CCARM 1229 and CCARM 1238), multidrug-resistant S. typhimurium (MDRST) (CCARM 8003, CCARM 8007, and CCARM 8009), multidrug-resistant Acinetobacter baumanii (MDRAB) (CCARM 12005, CCARM 12035, CCARM 12036, CCARM 12037), and multidrug-resistant P. aeruginosa (MDRPA) (CCARM 2002, CCARM 2003, CCARM 2095, and CCARM 2163) were obtained from the Culture Collection of Antibiotic-Resistant Microbes (CCARM) at Seoul Women’s University in Korea. The antimicrobial activities of the peptides against selected organisms, including three Gram-positive, three Gram-negative, and five antibiotic-resistant bacteria, were determined using a broth microdilution assay. Briefly, single colonies of bacteria and fungi were inoculated into Luria-Bertani (LB) medium and cultured overnight at 37°C. An aliquot of the culture was transferred to 10 mL of fresh LB and incubated for an additional 3–5 h at 37°C until it reached the mid-logarithmic phase. Two-fold serial dilutions of the peptides in 1% peptone were prepared. The serial dilutions (100 µL) were added to 100 µL of cells (2×10^6 colony-forming units (CFU)/mL) in 96-well microtiter plates and incubated at 37°C for 16 h. […] MIC values were calculated as the average of triplicate measurements from three independent assays.

Question: With FFHHIFRGIKHVGKTIHRLVTG [Pis-V10K] as the sequence, how does the “Average MIC” value read?
Answer: The value was 3.8 µM.
